US12679801B2, “Amino lipid and preparation method and application thereof” (Shenzhen MagicRNA Biotechnology Co., Ltd., priority 2022, dated 2026)

Assays:
BMDC primary cells [1] = assay: Luc mRNA LNP transfection on BMDC primary cells (Embodiment 21, Table 9); assay type: cell-based, C57BL/6 mice; details: 16 h, ONE-Glo Luciferase
Protocol: Preparation method: the same as that in Embodiment 17.
Animal preparation: 6-week-old female C57BL/6 mice with the body weight about 20 g were selected. A feeding environment was an SPF stage feeding room. Animal tests were strictly performed according to the guide of the national health institute and the animal ethics requirements.
(§1) Cell acquisition: C57BL/6 mice were killed through cervical dislocation, and were soaked for 5 min in 75% ethyl alcohol. Dissection was performed to obtain thigh and calf tibiae of the mice. Attached muscles were removed to expose sclerotin. Then, bone marrow in tibiae was blown out by using a 1 mL injector sucked with PBS. After the bone marrow was blown away, impurities were filtered away by a 50 μm filter screen. A red blood cell lysis buffer (3-4 mL) was added into an obtained filtrate. Then, after placement for 5 min, 800 g centrifugation was performed for 5 min to remove a supernatant. The obtained cells were placed into a 1640 culture medium (containing 10% fetal calf serum, 20 ng/mL GMCSF and 10 ng/mL IL4) to be resuspended, and were inoculated into a 6-well plate at an inoculation density of 100000 cells/ml culture medium. The materials were placed into a 37° C. cell incubator containing 5% CO2. Half liquid change was performed once every 2 days. Suspended cells and loose wall attached cells were collected on the seventh day, and were inoculated to a 96-well all-white ELISA plate at the inoculation density of 20000 cells per well, and the volume of a culture medium was 100 μL.
(§2) Cell transfection: lipid nanoparticles coated with luciferase mRNA were added into a 96-well white ELISA plate laid with primary cells. The adding volume of the mRNA lipid nanoparticles in each well was controlled to be 10 μL. Then, the materials were put into a 37° C. incubator containing 5% CO2 for 16 h.
Transfection efficiency detection: 20 μL of a substrate ONE-Glo™ Luciferase was added into each well of a 96-well all-white ELISA plate, and after 1 min, detection was performed by a multifunctional or multimode microplate reader.

BMDC primary cells [2] = assay: Luc mRNA LNP transfection on BMDC primary cells (Embodiment 13, Table 3); assay type: cell-based, C57BL/6 mice; details: 16 h, ONE-Glo Luciferase
Protocol: Preparation method: the same as that described in Embodiment 7.
Animal preparation: 6-week-old female C57BL/6 mice with the body weight about 20 g were selected. The feeding environment was an SPF stage feeding room. Animal tests were strictly performed according to the guide of the national health institute and the animal ethics requirements.
as §1, with “remove the” for “remove a”, “10 ng/ml” for “10 ng/mL”, “were” for “were inoculated to a 96-well all-white ELISA plate at the inoculation density of 20000 cells”
as §2, with “all-white” for “white”
Transfection efficiency detection: 20 μL of a substrate ONE-Glo™ Luciferase was added into each well of a 96-well all-white ELISA plate. After 1 min, detection was performed by a multifunctional or multimode microplate reader.

Row | Compound | Luciferase luminescence intensity (BMDC primary cells [1]) | Luciferase luminescence intensity (BMDC primary cells [2]) [E+ 04]
1 | CCCCCCCCCCCCCCC(COC(=O)C(CCCCC)CCCCCCCCC)OC(=O)CCCN(C)C (centres unmarked) [E11C109A9] | 4.3E+04 | –
2 | CCCCCCCCC(COC(=O)C(CCCCCCCC)CCCCCCCC)OC(=O)CCCCN(C)C (centres unmarked) [E5C115A11] | 1.1E+05 | –
3 | CCCCCCCCCCCC(COC(=O)C(CCCCCCCCC)CCCCCCCCC)OC(=O)CCCCN(C)C (centres unmarked) [E8C116A11] | 5.0E+04 | –
4 | CCCCCCCCCCCCC(COC(=O)C(CCCCC)CCCCCCCCC)OC(=O)CCCN(C)C (centres unmarked) [E9C109A9] | 3.6E+04 | –
5 | CCCCCCCCCCC(COC(=O)CC(CCCCCCC)CCCCCCC)OC(=O)CCCCN(C)C (centres unmarked) [E7C128A11] | 3.6E+04 | –
6 | CCCCCCCCCCCCC(COC(=O)CC(CCCCCCC)CCCCCCC)OC(=O)CCCCN(C)C (centres unmarked) [E9C128A11] | 3.5E+04 | –
7 | CCCCCCCCCCCC(COC(=O)CC(CCCCCCC)CCCCCCC)OC(=O)CCCCN(C)C (centres unmarked) [E8C128A11] | 3.5E+04 | –
8 | CCCCCCCCCCC(COC(=O)C(CCCCCCCCC)CCCCCCCCC)OC(=O)CCCCN(C)C (centres unmarked) [E7C116A11] | 9.2E+04 | –
9 | CCCCCCCCCCCCCCC(COC(=O)C(CCCCCCC)CCCCCCC)OC(=O)CCCN(C)C (centres unmarked) [E11C114A9] | 4.5E+04 | –
10 | CCCCCCCCCCC(CCCC)C(=O)OCC(CCCCCCCC)OC(=O)CCCCN(C)C (centres unmarked) [E5C104A11] | 4.0E+04 | –
11 | CCCCCCCCC(COC(=O)C(CCCCCCC)CCCCCCC)OC(=O)CCCN(C)C (centres unmarked) [E5C114A9] | 8.6E+03 | –
12 | CCCCCCCCC(COC(=O)CC(CCCCCCC)CCCCCCC)OC(=O)CCCCN(C)C (centres unmarked) [E5C128A11] | 4.3E+04 | –
13 | CCCCCCCCCCCCC(COC(=O)CC(CCCCCCC)CCCCCCC)OC(=O)CCCN(C)C (centres unmarked) [E9C128A9] | 3.7E+04 | –
14 | CCCCCCCCCCCC(COC(=O)C(CCCCCCC)CCCCCCC)OC(=O)CCCN(C)C (centres unmarked) [E8C114A9] | 6.8E+04 | –
15 | CCCCCCCCCC(CCCCCCCCC)C(=O)OCC(CCCCCCCC)OC(=O)CCCCN(C)C (centres unmarked) [E5C116A11] | 6.2E+04 | –
16 | CCCCCCCCCCC(COC(=O)C(CCCCCCC)CCCCCCC)OC(=O)CCCN(C)C (centres unmarked) [E7C114A9, 2-((4-(Dimethylamino)Butanoyl)Oxy) Dodecyl 2-Heptylnonanoate] | 6.6E+04 | –
17 | CCCCCCCCCCCC(COC(=O)C(CCCCCCC)CCCCCCC)OC(=O)CCCCN(C)C (centres unmarked) [E8C114A11] | 1.3E+05 | –
18 | CCCCCCCCCCCCCC(COC(=O)CC(CCCCCCC)CCCCCCC)OC(=O)CCCCN(C)C (centres unmarked) [E10C128A11] | 4.7E+04 | –
19 | CCCCCCCCCCCCCCCCC(=O)OCC(OC(=O)CCCN(C)C)C(CCCC)CCCCC (centres unmarked) [E21C12A9] | – | 5.4
20 | CCCCCCCCC(CCCCCC)C(=O)OCC(OC(=O)C1CCN(C)CC1)C(CCCC)CCCCC (centres unmarked) [E21C71A23] | – | 1.9
21 | CCCCCCCCCCCCCCC(C)C(=O)OCC(CCCCCCCC)OC(=O)C(C)CCN(C)C (centres unmarked) [E5C74A10] | – | 2.9
22 | CCCCCCCCCCCCCCC(C)C(=O)OCC(CCCCCCCCCCCCC)OC(=O)CCCN(C)C (centres unmarked) [E10C74A9] | – | 1.3
23 | CCCCCCCCCCCCCCC(C)C(=O)OCC(CCCCCCCCCCC)OC(=O)CCCCN(C)C (centres unmarked) [E8C74A11] | – | 4.0
24 | CCCCCCCCCCCCCCC(=O)OCC(CCCCCC(CC)CC)OC(=O)CCCCCN(C)C (centres unmarked) [E20C10A12] | – | 3.6
25 | CCCCCCCCCCCCCCCC(=O)OCC(CCCCCC(CC)CC)OC(=O)C1CCN(C)CC1 (centres unmarked) [E20C11A23] | – | 1.6

Row | Compound | Luciferase luminescence intensity (BMDC primary cells [1]) | Luciferase luminescence intensity (BMDC primary cells [2]) [E+ 04]
26 | CCCCCCCCCCCCC(COC(=O)C(CCCCC)CCCCC)OC(=O)C(C)CCN(C)C (centres unmarked) [E9C57A10] | – | 3.2
27 | CCCCCCCCCCCCCCCC(=O)OCC(CCCCCC(CC)CC)OC(=O)C(C)CCN(C)C (centres unmarked) [E20C11A10] | – | 4.5
28 | C=CCCCCC(COC(=O)C(CCCCCCC)CCCCCCCCC)OC(=O)CCCCCN(C)C (centres unmarked) [E15C79A12] | – | 4.4
29 | CCCCCCCCCCCCCC(C)C(=O)OCC(CCCCCCCCC)OC(=O)CCCCN(C)C (centres unmarked) [E6C72A11] | – | 5.0
30 | CCCCCCCCCCCCCCC(C)C(=O)OCC(CCCCCCCCCCC)OC(=O)CCCN(C)C (centres unmarked) [E8C74A9] | – | 8.5
31 | CCCCCCCCCCCCCCC(COC(=O)C(CCC)CCCCCCCC)OC(=O)CCCCN(C)C (centres unmarked) [E11C62A11] | – | 4.1
32 | CCCCCCCCCCCCCC(COC(=O)C(CCCCCCC)CCCCCCCCC)OC(=O)CCCN(C)C (centres unmarked) [E10C79A9] | – | 1.3
33 | CCCCCCCCCCCCCC(=O)OC(CC(F)(F)C(F)(F)C(F)(F)C(F)(F)C(F)(F)C(F)(F)F)OC(=O)CCCN(C)C (centres unmarked) [E24C9A9, 1-((4-(Dimethylamino)Butyryl)Oxy)-3,3,4,4,5,5,6,6,7,7,8,8,8-Tridecafluorooctyl Tetradecanoate] | – | 1.1
34 | CCCCCCCCCCCCC(COC(=O)C(C)(C)CCCCCCCCCC)OC(=O)CCCN(C)C (centres unmarked) [E9C66A9] | – | 2.3
35 | CCCCCCCCCC(COC(=O)C(CCCCCCC)CCCCCCCCC)OC(=O)C(C)CCN(C)C (centres unmarked) [E6C79A10] | – | 4.6
36 | CCCCCCCCCCCCCCC(COC(=O)CCCCCCCCCCC)OC(=O)CCCN(C)C (centres unmarked) [E11C7A9, 2-((4-(Dimethylamino)Butanoyl)Oxy)Hexadecyl Dodecanoate] | – | 1.5
37 | CCCCCCCCCCCC(COC(=O)C(CCCCCC)CCCCCC)OC(=O)C(C)CCN(C)C (centres unmarked) [E9C64A10] | – | 6.1
38 | CCCCCCCCCCCCC(COC(=O)C(CCCC)CCCCCC)OC(=O)C(C)CCN(C)C (centres unmarked) [E9C56A10] | – | 8.8
39 | CCCCCCCCCCCCC(COC(=O)C(CCC)CCCCCCCC)OC(=O)C(C)CCN(C)C (centres unmarked) [E9C62A10] | – | 4.3
40 | CCCCCC(CCCC)C(COC(=O)CCCCCCCCCCCC(C)C)OC(=O)CCCN(C)C (centres unmarked) [E21C67A9] | – | 3.2
41 | CCCCCCCCCCC(COC(=O)C(CCCCCCC)CCCCCCCCC)OC(=O)CCCCCN(C)C (centres unmarked) [E7C79A12] | – | 3.5
42 | CCCCCCCCCCCCCCCCCC(=O)OCC(CCCCCCCC)OC(=O)CCCCCN(C)C (centres unmarked) [E5C13A12] | – | 1.1
43 | CCCCCCCCCC(CCCCCCC)C(=O)OCC(CCCCCC)OC(=O)C(C)CCN(C)C (centres unmarked) [E3C79A10] | – | 7.4
44 | CCCCCCCCCCCCCC(C)C(=O)OCC(CCCCCCC)OC(=O)CCCCN(C)C (centres unmarked) [E4C72A11] | – | 5.8
45 | CCCCCCCCCCCCCCCC(COC(=O)CCCCCCCCCC)OC(=O)CCCCN(C)C (centres unmarked) [E12C6A11] | – | 1.2
46 | CCCCCCCCC(CCCCCC)C(=O)OCC(CCCCCC(CC)CC)OC(=O)CCCN(C)C (centres unmarked) [E20C71A9] | – | 6.6
47 | CCCCCCCCC(COC(=O)C(CCCCCC)CCCCCCCC)OC(=O)CCCCN(C)C (centres unmarked) [E5C71A11] | – | 4.6
48 | CCCCCCCCCCCCCCC(COC(=O)C(C)(C)CCCCCCCC)OC(=O)CCCCN(C)C (centres unmarked) [E11C58A11] | – | 2.3
49 | CCCCCCCCCCCCCCC(C)C(=O)OCC(CCCCCCC)OC(=O)CCCCN(C)C (centres unmarked) [E4C74A11] | – | 6.0
50 | CCCCCCCCCCCCCCC(C)C(=O)OCC(CCCCCCC)OC(=O)C(C)CCN(C)C (centres unmarked) [E4C74A10] | – | 4.7
